Experimental data: the NIST ThermoML archive (doi:10.1021/acs.jced.9b00334)

Conditions: Liquid, Vibrating tube method

CCCCn1cc[n+](C)c1.CCCCn1cc[n+](C)c1.[Co+2].[N-]=C=S.[N-]=C=S.[N-]=C=S.[N-]=C=S [bis(1-butyl-3-methylimidazolium) tetrathiocyanatocobaltate]
mass density [kg/m3]
Conditions | 323.18 K | 333.15 K | 343.14 K | 353.13 K | 363.14 K
100 kPa | – | 1199 | 1192.4 | 1185.8 | 1179.2
1000 kPa | – | 1199.5 | 1192.9 | 1186.3 | 1179.8
2000 kPa | – | 1200.1 | 1193.5 | 1186.9 | 1180.3
5000 kPa | – | 1201.8 | 1195.1 | 1188.6 | 1182
7000 kPa | – | 1202.7 | 1196.2 | 1189.6 | 1183.2
10000 kPa | – | 1204.2 | 1197.7 | 1191.2 | 1184.8
15000 kPa | – | 1206.7 | 1200.4 | 1193.8 | 1187.5
20000 kPa | – | 1209.2 | 1202.8 | 1196.5 | 1190
25000 kPa | – | 1211.6 | 1205.1 | 1198.9 | 1192.6
30000 kPa | – | 1213.9 | 1207.5 | 1201.3 | 1195
35000 kPa | – | 1216.2 | 1209.8 | 1203.6 | 1197.4
40000 kPa | 1224.9 | 1218.3 | 1212.2 | 1205.9 | 1199.9
45000 kPa | 1227 | 1220.5 | 1214.4 | 1208.1 | 1202.2
50000 kPa | 1229.1 | 1222.8 | 1216.4 | 1210.5 | 1204.5
55000 kPa | 1231.1 | 1224.9 | 1218.6 | 1212.8 | 1206.7
60000 kPa | 1233.2 | 1227 | 1220.7 | 1215.1 | 1208.9
65000 kPa | 1235.1 | 1229.1 | 1222.9 | 1216.9 | 1211.2
70000 kPa | 1237.2 | 1231 | 1225 | 1219 | 1213.2
75000 kPa | 1239.2 | 1233 | 1227 | 1221.1 | 1215.3
80000 kPa | 1241 | 1235.1 | 1229.1 | 1223.1 | 1217.3
85000 kPa | 1242.9 | 1236.9 | 1231 | 1225.2 | 1219.3
90000 kPa | 1244.8 | 1238.9 | 1232.8 | 1227.1 | 1221.4
95000 kPa | 1246.5 | 1240.7 | 1234.8 | 1229.1 | 1223.3
